In ChEMBL document CHEMBL1157454, “Citral derived amides as potent bacterial NorA efflux pump inhibitors” (2008):
In brackets after ≈: the same amount, converted by molar mass. One block for each compound: values may come before it. Activity calls are given as the source filed them. The calls are words filed in the database; no cut-off is given here.

Experiments:
Staphylococcus aureus [1] = assay: Antimicrobial activity against Staphylococcus aureus 1199 at 100 ug/ml after 18 hrs by twofold serial dilution method; format: functional, organism-based
Staphylococcus aureus [2] = assay: Antimicrobial activity against NorA overexpressing Staphylococcus aureus 1199B at 100 ug/ml after 18 hrs by twofold serial dilution method; format: functional, organism-based
[3] = target: T1, Quinolone resistance protein NorA (Staphylococcus aureus) (UniProt P0A0J7); assay: Inhibition of NorA efflux pump in Staphylococcus aureus 1199B assessed as fold reduction of ciprofloxacin MIC at 12.5 ug/ml
T1 sequence (whole entry): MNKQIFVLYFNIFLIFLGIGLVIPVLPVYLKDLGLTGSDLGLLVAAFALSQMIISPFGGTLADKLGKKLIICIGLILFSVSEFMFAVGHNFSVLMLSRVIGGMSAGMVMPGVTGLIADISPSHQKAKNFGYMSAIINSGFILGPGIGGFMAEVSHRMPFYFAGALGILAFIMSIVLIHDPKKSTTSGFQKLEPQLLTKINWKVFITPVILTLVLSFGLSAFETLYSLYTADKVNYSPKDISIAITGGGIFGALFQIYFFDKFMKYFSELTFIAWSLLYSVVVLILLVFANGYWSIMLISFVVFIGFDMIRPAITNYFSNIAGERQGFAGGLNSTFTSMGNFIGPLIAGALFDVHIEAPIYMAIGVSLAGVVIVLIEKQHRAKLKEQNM

[4] = target: T1, Quinolone resistance protein NorA (Staphylococcus aureus); assay: Inhibition of NorA efflux pump in Staphylococcus aureus 1199 assessed as fold reduction of ciprofloxacin MIC at 25 ug/ml
[5] = target: T1, Quinolone resistance protein NorA (Staphylococcus aureus); assay: Inhibition of NorA efflux pump in Staphylococcus aureus 1199B assessed as fold reduction of ciprofloxacin MIC at 25 ug/ml
[6] = target: T1, Quinolone resistance protein NorA (Staphylococcus aureus); assay: Inhibition of NorA efflux pump in Staphylococcus aureus 1199 assessed as fold reduction of ciprofloxacin MIC at 12.5 ug/ml
[7] = target: T1, Quinolone resistance protein NorA (Staphylococcus aureus); settings: 1199B
[8] = target: T1, Quinolone resistance protein NorA (Staphylococcus aureus)
[9] = target: T1, Quinolone resistance protein NorA (Staphylococcus aureus); assay: Inhibition of NorA efflux pump in Staphylococcus aureus 1199B assessed as fold reduction of ciprofloxacin MIC at 6.25 ug/ml
[10] = target: T1, Quinolone resistance protein NorA (Staphylococcus aureus); assay: Inhibition of NorA efflux pump in Staphylococcus aureus 1199 assessed as fold reduction of ciprofloxacin MIC at 6.25 ug/ml

Structure (SMILES): C/C(C=O)=C\CCC(C)CCCC(=O)NCc1ccccc1 (stereo not given)
Activity (Staphylococcus aureus [1]): inactive
Activity (Staphylococcus aureus [2]): inactive

Structure (SMILES): CC(C)=CCCC(C)C/C=C/C(=O)N1CCCCC1 (stereo not given)
Activity (Staphylococcus aureus [1]): inactive
Activity (Staphylococcus aureus [2]): inactive
fold reduction [3]: 2

Structure (SMILES): CC(C)=CCC/C(C)=C/C=C/C(=O)N1CCCC1
Activity (Staphylococcus aureus [1]): inactive
Activity (Staphylococcus aureus [2]): inactive

Structure (SMILES): CC(C)=CCC/C(C)=C/C=C/C(=O)N(C(C)C)C(C)C
fold reduction [4]: 2
fold reduction [5]: 4
Activity (Staphylococcus aureus [1]): inactive
Activity (Staphylococcus aureus [2]): inactive

Structure (SMILES): COc1ccc(NC(=O)/C=C/C=C(\C)CCC=C(C)C)cc1
Activity (Staphylococcus aureus [1]): inactive
Activity (Staphylococcus aureus [2]): inactive

Structure (SMILES): CC(C)c1cc2c(c(O)c1O)[C@@]1(C(=O)O)CCCC(C)(C)[C@@H]1CC2
fold reduction [4]: 2
fold reduction [5]: 2

fold reduction [4]: 2
fold reduction [5]: 4
Structure (SMILES): COC(=O)[C@H]1[C@H]2C[C@@H]3c4[nH]c5cc(OC)ccc5c4CCN3C[C@H]2C[C@@H](OC(=O)c2cc(OC)c(OC)c(OC)c2)[C@@H]1OC

Structure (SMILES): CC(C)=CCC/C(C)=C/C=C/C(=O)Nc1ccccc1C
Activity (Staphylococcus aureus [1]): inactive
Activity (Staphylococcus aureus [2]): inactive

Structure (SMILES): CCCCCCCCNC(=O)CCCC(C)CCC=C(C)C (stereo not given)
Activity (Staphylococcus aureus [1]): inactive
Activity (Staphylococcus aureus [2]): inactive

Structure (SMILES): COc1ccccc1NC(=O)/C=C/C=C(\C)CCC=C(C)C
fold reduction [4]: 2
fold reduction [5]: 4
Activity (Staphylococcus aureus [1]): inactive
Activity (Staphylococcus aureus [2]): inactive

Structure (SMILES): CC(C)=CCC/C(C)=C/C=C/C(=O)N1CCCCC1
fold reduction [6]: 2
Activity (Staphylococcus aureus [1]): inactive
Activity (Staphylococcus aureus [2]): inactive
fold reduction [3]: 2

Structure (SMILES): C/C(C=O)=C\CC/C(C)=C/C=C/C(=O)N(C(C)C)C(C)C
fold reduction [5]: 4
Activity (Staphylococcus aureus [1]): inactive
Activity (Staphylococcus aureus [2]): inactive
fold reduction [3]: 2

Structure (SMILES): CCCCCCCCNC(=O)/C=C/C=C(\C)CC/C=C(\C)C=O
fold reduction [4]: 2
fold reduction [6]: 2
fold reduction [5]: 4
Activity (Staphylococcus aureus [1]): inactive
Activity (Staphylococcus aureus [2]): inactive
fold reduction [3]: 2

Structure (SMILES): CCCCCCCCNC(=O)/C=C/CC(C)CCC=C(C)C (stereo not given)
Activity (Staphylococcus aureus [1]): inactive
Activity (Staphylococcus aureus [2]): inactive

Structure (SMILES): COc1ccccc1NC(=O)/C=C/CC(C)CC/C=C(\C)C=O (stereo not given)
fold reduction [5]: 4
Activity (Staphylococcus aureus [1]): inactive
Activity (Staphylococcus aureus [2]): inactive

Structure (SMILES): CCCCCCCCNC(=O)/C=C/CC(C)CC/C=C(\C)C=O (stereo not given)
fold reduction [5]: 4
Activity (Staphylococcus aureus [1]): inactive
Activity (Staphylococcus aureus [2]): inactive

Structure (SMILES): C/C(C=O)=C\CC/C(C)=C/C=C/C(=O)N1CCCC1
Activity (Staphylococcus aureus [1]): inactive
Activity (Staphylococcus aureus [2]): inactive

Structure (SMILES): CC(C)=CCC/C(C)=C/C=C/C(=O)NC(C)C
Activity (Staphylococcus aureus [1]): inactive
Activity (Staphylococcus aureus [2]): inactive

Structure (SMILES): CC(C)=CCC/C(C)=C/C=C/C(=O)Nc1ccccc1
Activity (Staphylococcus aureus [1]): inactive
Activity (Staphylococcus aureus [2]): inactive

Structure (SMILES): COc1ccccc1NC(=O)/C=C/CC(C)CCC=C(C)C (stereo not given)
Activity (Staphylococcus aureus [1]): inactive
Activity (Staphylococcus aureus [2]): inactive
fold reduction [3]: 2

Structure (SMILES): CC(C)=CCC/C(C)=C/C=C/C(=O)NCC(C)C
Activity (Staphylococcus aureus [1]): inactive
Activity (Staphylococcus aureus [2]): inactive

MIC [7]: 2 µg/mL (≈ 7.01 µM)
MIC [8]: 2 µg/mL (≈ 7.01 µM)
Structure (SMILES): O=C(/C=C/C=C/c1ccc2c(c1)OCO2)N1CCCCC1

Structure (SMILES): CC(C)=CCCC(C)C/C=C/C(=O)NCc1ccccc1 (stereo not given)
MIC [7]: 4 µg/mL (≈ 14 µM)
Activity (Staphylococcus aureus [1]): inactive
Activity (Staphylococcus aureus [2]): inactive
MIC [8]: 4 µg/mL (≈ 14 µM)

Structure (SMILES): CC(C)=CCC/C(C)=C/C=C/C(=O)N1CCOCC1
Activity (Staphylococcus aureus [1]): inactive
Activity (Staphylococcus aureus [2]): inactive

Structure (SMILES): COc1ccccc1NC(=O)CCCC(C)CCC=C(C)C (stereo not given)
Activity (Staphylococcus aureus [1]): inactive
Activity (Staphylococcus aureus [2]): inactive

Structure (SMILES): C/C(C=O)=C\CC/C(C)=C/C=C/C(=O)N1CCOCC1
Activity (Staphylococcus aureus [1]): inactive
Activity (Staphylococcus aureus [2]): inactive

Structure (SMILES): C/C(C=O)=C\CCC(C)CCCC(=O)N1CCCCC1 (stereo not given)
Activity (Staphylococcus aureus [1]): inactive
Activity (Staphylococcus aureus [2]): inactive

Structure (SMILES): CC(C)=CCC/C(C)=C/C=C/C(=O)NCc1ccccc1
fold reduction [4]: 2
fold reduction [5]: 4
Activity (Staphylococcus aureus [1]): inactive
Activity (Staphylococcus aureus [2]): inactive
fold reduction [3]: 2

Structure (SMILES): C/C(C=O)=C\CC/C(C)=C/C=C/C(=O)N1CCCCC1
fold reduction [9]: 2
fold reduction [5]: 4
Activity (Staphylococcus aureus [1]): inactive
Activity (Staphylococcus aureus [2]): inactive
fold reduction [10]: 2

Structure (SMILES): CCCCCCCCNC(=O)/C=C/C=C(\C)CCC=C(C)C
fold reduction [4]: 4
fold reduction [6]: 2
fold reduction [5]: 4
Activity (Staphylococcus aureus [1]): inactive
Activity (Staphylococcus aureus [2]): inactive
fold reduction [3]: 2

Structure (SMILES): C/C(C=O)=C\CC/C(C)=C/C=C/C(=O)NCc1ccccc1
fold reduction [4]: 2
fold reduction [5]: 4
Activity (Staphylococcus aureus [1]): inactive
Activity (Staphylococcus aureus [2]): inactive
fold reduction [3]: 2

Structure (SMILES): CC(C)=CCC/C(C)=C/C=C/C(=O)O
Activity (Staphylococcus aureus [1]): inactive
Activity (Staphylococcus aureus [2]): inactive
